Experimental data: the NIST ThermoML archive (doi:10.1016/j.jct.2006.01.012)
Numbers after ± are expanded uncertainties.

Assay: xn = mol fraction of the nth substance listed
Conditions: Liquid; for mass density: isochoric method; for viscosity: Capillary tube (Ostwald / Ubbelohde) method

`CCCCCCCC` [octane] + CCCCCCC showed a mass density (293.15 K, 100 kPa, x2 = 0.2808) of 697.8 ± 0.9 kg/m3, a mass density (293.15 K, 100 kPa, x2 = 0.5427) of 693.2 ± 0.8 kg/m3 and a mass density (293.15 K, 100 kPa, x2 = 0.7906) of 688.3 ± 0.8 kg/m3. The viscosity (298.15 K, 100 kPa, x2 = 0.5427) was 0.436 ± 0.014 mPa·s, the mass density (298.15 K, 100 kPa, x2 = 0.2808) was 694 ± 0.8 kg/m3 and the mass density (298.15 K, 100 kPa, x2 = 0.5427) was 689.2 ± 0.8 kg/m3. The mass density (298.15 K, 100 kPa, x2 = 0.7906) was 684.2 ± 0.8 kg/m3, the viscosity (298.15 K, 5000 kPa, x2 = 0.5427) was 0.461 ± 0.015 mPa·s and the viscosity (298.15 K, 10000 kPa, x2 = 0.5427) was 0.487 ± 0.016 mPa·s. The viscosity (298.22 K, 100 kPa, x2 = 0.7906) was 0.408 ± 0.013 mPa·s, the viscosity (298.22 K, 5000 kPa, x2 = 0.7906) was 0.435 ± 0.014 mPa·s and the viscosity (298.22 K, 10000 kPa, x2 = 0.7906) was 0.459 ± 0.015 mPa·s. The viscosity (298.39 K, 100 kPa, x2 = 0.2808) was 0.467 ± 0.015 mPa·s, the viscosity (298.39 K, 5000 kPa, x2 = 0.2808) was 0.493 ± 0.016 mPa·s and the viscosity (298.39 K, 10000 kPa, x2 = 0.2808) was 0.521 ± 0.017 mPa·s. For the same compound, the mass density (299.24 K, 3824 kPa, x2 = 0.5427) was 691.8 ± 0.8 kg/m3, the mass density (299.24 K, 6865 kPa, x2 = 0.5427) was 694.6 ± 0.8 kg/m3 and the mass density (299.24 K, 9316 kPa, x2 = 0.5427) was 696.4 ± 0.9 kg/m3. For the same compound, the mass density (303.15 K, 100 kPa, x2 = 0.2808) was 689.9 ± 0.8 kg/m3, the mass density (303.15 K, 100 kPa, x2 = 0.5427) was 685 ± 0.8 kg/m3 and the mass density (303.15 K, 100 kPa, x2 = 0.7906) was 680.1 ± 0.8 kg/m3. The viscosity (303.39 K, 100 kPa, x2 = 0.5427) was 0.414 ± 0.014 mPa·s, the viscosity (303.39 K, 5000 kPa, x2 = 0.5427) was 0.435 ± 0.014 mPa·s and the viscosity (303.39 K, 10000 kPa, x2 = 0.5427) was 0.459 ± 0.015 mPa·s. The viscosity (303.85 K, 100 kPa, x2 = 0.2808) was 0.441 ± 0.014 mPa·s, the viscosity (303.85 K, 5000 kPa, x2 = 0.2808) was 0.465 ± 0.015 mPa·s and the viscosity (303.85 K, 10000 kPa, x2 = 0.2808) was 0.492 ± 0.016 mPa·s. It also gave a viscosity (305.74 K, 100 kPa, x2 = 0.7906) of 0.379 ± 0.012 mPa·s, a viscosity (305.74 K, 5000 kPa, x2 = 0.7906) of 0.402 ± 0.013 mPa·s and a viscosity (305.74 K, 10000 kPa, x2 = 0.7906) of 0.425 ± 0.014 mPa·s. For the same compound, the mass density (306.18 K, 2942 kPa, x2 = 0.2808) was 690.3 ± 0.8 kg/m3, the mass density (306.18 K, 7021 kPa, x2 = 0.2808) was 693.8 ± 0.8 kg/m3 and the mass density (306.18 K, 8826 kPa, x2 = 0.2808) was 695.3 ± 0.8 kg/m3. The mass density (307.62 K, 2608 kPa, x2 = 0.7906) was 678.6 ± 0.8 kg/m3, the mass density (307.62 K, 7178 kPa, x2 = 0.7906) was 683 ± 0.8 kg/m3 and the mass density (307.62 K, 9140 kPa, x2 = 0.7906) was 684.6 ± 0.8 kg/m3. The mass density (308.15 K, 100 kPa, x2 = 0.2808) was 686.1 ± 0.8 kg/m3, the mass density (308.15 K, 100 kPa, x2 = 0.5427) was 680.9 ± 0.8 kg/m3 and the mass density (308.15 K, 100 kPa, x2 = 0.7906) was 675.9 ± 0.8 kg/m3. For the same compound, the viscosity (312.71 K, 100 kPa, x2 = 0.2808) was 0.4 ± 0.013 mPa·s, the viscosity (312.71 K, 5000 kPa, x2 = 0.2808) was 0.424 ± 0.014 mPa·s and the viscosity (312.71 K, 10000 kPa, x2 = 0.2808) was 0.446 ± 0.015 mPa·s. For the same compound, the viscosity (312.74 K, 100 kPa, x2 = 0.5427) was 0.374 ± 0.012 mPa·s, the viscosity (312.74 K, 5000 kPa, x2 = 0.5427) was 0.396 ± 0.013 mPa·s and the viscosity (312.74 K, 10000 kPa, x2 = 0.5427) was 0.419 ± 0.014 mPa·s. The viscosity (312.75 K, 100 kPa, x2 = 0.7906) was 0.352 ± 0.012 mPa·s, the viscosity (312.75 K, 5000 kPa, x2 = 0.7906) was 0.373 ± 0.012 mPa·s and the viscosity (312.75 K, 10000 kPa, x2 = 0.7906) was 0.395 ± 0.013 mPa·s. It also gave a mass density (313.15 K, 100 kPa, x2 = 0.2808) of 681.6 ± 0.8 kg/m3, a mass density (313.15 K, 100 kPa, x2 = 0.5427) of 676.6 ± 0.8 kg/m3 and a mass density (313.15 K, 100 kPa, x2 = 0.7906) of 671.6 ± 0.8 kg/m3. The mass density (318.15 K, 100 kPa, x2 = 0.2808) was 677.4 ± 0.8 kg/m3, the mass density (318.15 K, 100 kPa, x2 = 0.5427) was 672.7 ± 0.8 kg/m3 and the mass density (318.15 K, 100 kPa, x2 = 0.7906) was 667.3 ± 0.8 kg/m3. For the same compound, the viscosity (321.21 K, 100 kPa, x2 = 0.5427) was 0.338 ± 0.011 mPa·s, the viscosity (321.21 K, 5000 kPa, x2 = 0.5427) was 0.359 ± 0.012 mPa·s and the viscosity (321.21 K, 10000 kPa, x2 = 0.5427) was 0.38 ± 0.012 mPa·s. For the same compound, the viscosity (321.71 K, 100 kPa, x2 = 0.2808) was 0.362 ± 0.012 mPa·s, the viscosity (321.71 K, 5000 kPa, x2 = 0.2808) was 0.384 ± 0.013 mPa·s and the viscosity (321.71 K, 10000 kPa, x2 = 0.2808) was 0.405 ± 0.013 mPa·s. It also gave a mass density (323.15 K, 100 kPa, x2 = 0.2808) of 673.2 ± 0.8 kg/m3, a mass density (323.15 K, 100 kPa, x2 = 0.5427) of 668.5 ± 0.8 kg/m3 and a mass density (323.15 K, 100 kPa, x2 = 0.7906) of 663 ± 0.8 kg/m3. For the same compound, the viscosity (323.82 K, 100 kPa, x2 = 0.7906) was 0.314 ± 0.01 mPa·s and the viscosity (323.82 K, 5000 kPa, x2 = 0.7906) was 0.334 ± 0.011 mPa·s.
